Active and inactive are the calls of the source. No cut-off for these calls is given here.
Experiments:
A549 [1] = experiment: Induction of apoptosis in human A549 cells assessed as early apoptotic cells at 10 uM measured after 48 hrs by annexin V-FITC/PI staining based flow cytometry analysis (reference value: 0.59%); format: functional
A549 [2] = experiment: Induction of cell cycle arrest in human A549 cells assessed as accumulation of cells as S phase at 30 uM measured after 24 hrs by propidium iodide staining based flow cytometry analysis (reference value: 19.57%); format: functional
A549 [3] = experiment: Downregulation of ERK phosphorylation expression in human A549 cells at 10 to 30 uM by Western blot analysis; format: functional, cell-based; details: dose 10-30 µM
NCI-H460 [4] = experiment: Induction of apoptosis in human NCI-H460 cells assessed as necrotic cells at 10 uM measured after 48 hrs by annexin V-FITC/PI staining based flow cytometry analysis (reference value: 2.47%); format: functional
NCI-H460 [5] = experiment: Antiproliferative activity against human NCI-H460 cells assessed as inhibition of cell growth incubated for 48 hrs by MTT assay; format: functional, cell-based
NCI-H460 [6] = experiment: Upregulation of Bax protein expression in human NCI-H460 cells at 10 uM by Western blot analysis; format: functional, cell-based
NCI-H460 [7] = experiment: Induction of cell cycle arrest in human NCI-H460 cells assessed as accumulation of cells as S phase at 30 uM measured after 24 hrs by propidium iodide staining based flow cytometry analysis (reference value: 7.09%); format: functional
NCI-H460 [8] = experiment: Downregulation of cyclin B1 protein expression in human NCI-H460 cells at 30 uM by Western blot analysis; format: functional, cell-based
A549 [9] = experiment: Induction of cell cycle arrest in human A549 cells assessed as accumulation of cells as G1 phase at 30 uM measured after 24 hrs by propidium iodide staining based flow cytometry analysis (reference value: 71.74%); format: functional
Lewis lung carcinoma [10] = experiment: Antitumor activity against mouse Lewis lung carcinoma cell line xenografted in C57BL/6 mouse model assessed as reduction in tumor weight at 10 to 20 mg/kg, ip measured every three days for 15 days […]; format: functional, organism-based; details: dose 10-20 mg/kg, time 15.0 day
NCI-H460 [11] = experiment: Induction of apoptosis in human NCI-H460 cells assessed as viable cells at 30 uM measured after 48 hrs by annexin V-FITC/PI staining based flow cytometry analysis (reference value: 91.81%); format: functional; details: read-out: Activity
NCI-H460 [12] = experiment: Induction of apoptosis in human NCI-H460 cells assessed as necrotic cells at 30 uM measured after 48 hrs by annexin V-FITC/PI staining based flow cytometry analysis (reference value: 2.47%); format: functional
A549 [13] = experiment: Induction of cell cycle arrest in human A549 cells assessed as accumulation of cells as G1 phase at 10 uM measured after 24 hrs by propidium iodide staining based flow cytometry analysis (reference value: 71.74%); format: functional
Lewis lung carcinoma [14] = experiment: Antitumor activity against mouse Lewis lung carcinoma cell line xenografted in C57BL/6 mouse model assessed as downregulation of cyclin B1 expression at 10 to 20 mg/kg by Western blot analysis; format: functional, organism-based; details: dose 10-20 mg/kg
NCI-H460 [15] = experiment: Induction of cell cycle arrest in human NCI-H460 cells assessed as accumulation of cells as G2 phase at 10 uM measured after 24 hrs by propidium iodide staining based flow cytometry analysis (reference value: 8.37%); format: functional
NCI-H460 [16] = experiment: Inhibition of cell migration in human NCI-H460 cells at 10 to 30 uM measured after 24 hrs by wound healing assay relative to control; format: functional; details: dose 10-30 µM
Lewis lung carcinoma [17] = experiment: Antitumor activity against mouse Lewis lung carcinoma cell line xenografted in C57BL/6 mouse model assessed as increase in bax protein expression at 10 to 20 mg/kg by Western blot analysis; format: functional, organism-based; details: dose 10-20 mg/kg
NCI-H460 [18] = experiment: Induction of cell cycle arrest in human NCI-H460 cells assessed as accumulation of cells as G1 phase at 10 uM measured after 24 hrs by propidium iodide staining based flow cytometry analysis (Rvb =84.54%); format: functional
NCI-H460 [19] = experiment: Induction of cell cycle arrest in human NCI-H460 cells assessed as accumulation of cells as G2 phase at 30 uM measured after 24 hrs by propidium iodide staining based flow cytometry analysis (reference value: 8.37%); format: functional
Lewis lung carcinoma [20] = experiment: Antitumor activity against mouse Lewis lung carcinoma cell line xenografted in C57BL/6 mouse model assessed as increase in Bax/Bcl2 ratio at 10 to 20 mg/kg by Western blot analysis; format: functional, organism-based; details: dose 10-20 mg/kg
A549 [21] = experiment: Induction of apoptosis in human A549 cells assessed as viable cells at 10 uM measured after 48 hrs by annexin V-FITC/PI staining based flow cytometry analysis (reference value: 80.26%); format: functional; details: read-out: Activity
A549 [22] = experiment: Induction of cell cycle arrest in human A549 cells assessed as accumulation of cells as S phase at 10 uM measured after 24 hrs by propidium iodide staining based flow cytometry analysis (reference value: 19.57%); format: functional
A549 [23] = experiment: Inhibition of colony formation in human A549 cells at 30 uM measured after 48 hrs by giemsa staining based analysis relative to control; format: functional
Lewis lung carcinoma [24] = experiment: Antitumor activity against mouse Lewis lung carcinoma cell line xenografted in C57BL/6 mouse model assessed as downregulation of CDK1 expression at 10 to 20 mg/kg by Western blot analysis; format: functional, organism-based; details: dose 10-20 mg/kg
A549 [25] = experiment: Antiproliferative activity against human A549 cells assessed as inhibition of cell growth incubated for 48 hrs by MTT assay; format: functional, cell-based
A549 [26] = experiment: Downregulation of JNK phosphorylation expression in human A549 cells at 10 to 30 uM by Western blot analysis; format: functional, cell-based; details: dose 10-30 µM
NCI-H460 [27] = experiment: Induction of apoptosis in human NCI-H460 cells assessed as late apoptotic cells at 30 uM measured after 48 hrs by annexin V-FITC/PI staining based flow cytometry analysis (reference value: 5.41%); format: functional
A549 [28] = experiment: Downregulation of CDK1 protein expression in human A549 cells at 10 to 30 uM by Western blot analysis; format: functional, cell-based; details: dose 10-30 µM
A549 [29] = experiment: Induction of apoptosis in human A549 cells assessed as late apoptotic cells at 30 uM measured after 48 hrs by annexin V-FITC/PI staining based flow cytometry analysis (reference value: 15.12%); format: functional
NCI-H460 [30] = experiment: Inhibition of colony formation in human NCI-H460 cells at 30 uM measured after 48 hrs by giemsa staining based analysis relative to control; format: functional

**Q.** Which Activity (A549 [1]) does the source give for `CC(C(=O)NCCC[Se]C(F)(F)F)c1ccc(-c2ccccc2)c(F)c1` (configuration not stated) here?
**A.** 0.53%

**Q.** And the Activity (A549 [2])?
**A.** 52.63%

**Q.** And the Activity (A549 [3])?
**A.** Active

**Q.** And the Activity (NCI-H460 [4])?
**A.** 1.67%

**Q.** What about the IC50 (NCI-H460 [5]; NCI-H460, 48 h) of the same molecule?
**A.** 78.2 µM

**Q.** And the Activity (NCI-H460 [5]; dose 3-300 µM)?
**A.** Dose-Dependent Effect

**Q.** And the Activity (NCI-H460 [6])?
**A.** Active

**Q.** And the Activity (NCI-H460 [7])?
**A.** 11.14%

**Q.** What about the Activity (NCI-H460 [8]) of the same molecule?
**A.** Active

**Q.** What about the Activity (A549 [9]) of the same molecule?
**A.** 7.45%

**Q.** What about the Activity (Lewis lung carcinoma [10]) of the same molecule?
**A.** Active

**Q.** And the viability at 30 µM (NCI-H460 [11])?
**A.** 74%

**Q.** And the Activity (NCI-H460 [12])?
**A.** 6.76%

**Q.** What about the Activity (A549 [13]) of the same molecule?
**A.** 76.88%

**Q.** What about the Activity (Lewis lung carcinoma [14]) of the same molecule?
**A.** Active

**Q.** And the Activity (NCI-H460 [15])?
**A.** 10.69%

**Q.** And the “inhibition (INH)” value (NCI-H460 [16])?
**A.** 47.5%

**Q.** What about the Activity (Lewis lung carcinoma [17]) of the same molecule?
**A.** Active

**Q.** What about the Activity (NCI-H460 [18]) of the same molecule?
**A.** 78.71%

**Q.** And the Activity (NCI-H460 [19])?
**A.** 83.13%

**Q.** And the Activity (Lewis lung carcinoma [20])?
**A.** Active

**Q.** And the viability at 10 µM (A549 [21])?
**A.** 74.6%

**Q.** What about the Activity (A549 [22]) of the same molecule?
**A.** 13.83%

**Q.** What about the inhibition at 30 µM (A549 [23]) of the same molecule?
**A.** 89%

**Q.** What about the Activity (Lewis lung carcinoma [24]) of the same molecule?
**A.** Active

**Q.** What about the IC50 (A549 [25]; A549, 48 h) of the same molecule?
**A.** 41.9 µM

**Q.** What about the Activity (A549 [25]; dose 3-300 µM) of the same molecule?
**A.** Dose-Dependent Effect

**Q.** What about the Activity (A549 [26]) of the same molecule?
**A.** Active

**Q.** And the Activity (NCI-H460 [27])?
**A.** 17.28%

**Q.** What about the Activity (A549 [28]) of the same molecule?
**A.** Active

**Q.** What about the Activity (A549 [29]) of the same molecule?
**A.** 35.06%

**Q.** And the inhibition at 30 µM (NCI-H460 [30])?
**A.** 88%

Reference: ChEMBL document CHEMBL5532691, “Anti-cancer activity and mechanism of flurbiprofen organoselenium compound RY-1-92 in non-small cell lung cancer” (RSC Med Chem, 2024)
